Laboratory results: publication PMC6609541, “Enterohepatic circulation of glucuronide metabolites of drugs in dog” (Pharmacology Research & Perspectives, 2019)
Several values for one entry are separate records, joined by “and”; a condition that tells them apart may be missing. Equal values may be shown once. Read-outs that look alike come from different tables or passages of the source.

What was measured:
[1] = Hepatocyte intrinsic clearance with and without ABT (dog); format: in vitro ADME; conditions: cryopreserved dog hepatocytes, dog hepatocytes, 0.3 µmol/L compound
Description: (§1) The intrinsic clearance was determined in cryopreserved dog and human hepatocytes essentially as described previously.4 The assay incubation contained 0.3 µmol/L compound and hepatocytes at a concentration of 10^6 cells/mL, with and without 30 minutes pre‐incubation of 1 mmol/L ABT. Intrinsic clearance measurement was initiated by the addition of compound and the incubation quenched at 0.6, 15, 30, 60 and 90 minutes for DPTQ, and at 0.6, 15, 30, 60, 120 and 240 minutes by addition of acetonitrile with 0.1% formic acid. Samples were centrifuged at 3500 g for 10 minutes and the supernatant was analyzed to quantify parent compound loss and the intrinsic clearance values (μL/min/10^6 cells) were calculated using following equation for incubations with and without ABT. CLint=-kdep×incubation volume/10^6cells
(§2) In which the depletion rate constant (k dep) is the slope determined using linear regression from the log transformed percentage remaining on the y‐axis vs time on the x‐axis (min^− ^1). The fraction of metabolism (fm) by P450 was determined by the measurement of the percentage of inhibition of Clint by ABT.

[2] = system: cryopreserved dog hepatocytes; test: as above; format: in vitro ADME; conditions: for percentage of the metabolism not inhibited by ABT / % of inhibition by ABT: dog hepatocytes; for % of inhibition by ABT: inhibition of Clint by 1 mmol/L ABT (fm by P450); for Hepatic fm by UGT: dog, in hepatocytes
Description: as §1, §2

[3] = Hepatocyte intrinsic clearance with and without ABT (human); format: in vitro ADME; conditions: cryopreserved human hepatocytes, human hepatocytes, 0.3 µmol/L compound
Description: as §1, §2

[4] = system: cryopreserved human hepatocytes; test: as above; format: in vitro ADME; conditions: for % of inhibition by ABT: human hepatocytes, inhibition of Clint by 1 mmol/L ABT (fm by P450); for Hepatic fm by UGT: human, in hepatocytes
Description: as §1, §2

[5] = system: UGT (glucuronidation); test: Liver microsomal glucuronidation assay (dog); format: in vitro ADME; conditions: liver microsomes, pH 7.5, dog, without BSA
Description: (§3) Intrinsic clearance of the compounds by glucuronidation was conducted in human and dog liver and kidney microsomes. Microsomes (0.5 mg/mL) with or without 2% bovine serum albumin (BSA), 100 mmol/L Tris‐HCl buffer, (pH 7.5), containing 5 mmol/L MgCl2 and 50 µg of alamethicin were mixed and placed on ice for 15 minutes. Canagliflozin or DPTQ (2 µmol/L final concentration) were added, and the mixture was pre‐incubated at 37°C for 3 minutes. A 0‐minute time point was obtained and the reaction initiated by the addition of UDPGA (5 mmol/L final concentration). Aliquots of the incubation (50 µL) were removed at various time points 5, 15, 30, 60 and 120 minutes, and added to the quench solution (1:1 acetonitrile:water). The zero minute time points were also quenched in the same manner. Substrate concentrations were then measured by LC/MS and the intrinsic clearance values (μL/min/mg protein) were calculated using following equation. CLint=-kdep×incubation volume/mg protein
(§4) In which the depletion rate constant (k dep) is the slope determined using linear regression from the log transformed % remaining on the y‐axis vs time on the x‐axis (min^− ^1). […] To determine the unbound intrinsic clearances the microsomal Clint values were divided by the respective microsomal fraction unbound values. The microsomal unbound fraction both with and without 2% BSA was determined as described previously.15

[6] = system: UGT; test: Liver microsomal glucuronidation assay (dog); format: in vitro ADME; conditions: dog liver microsomes, pH 7.5, dog, with 2% BSA
Description: as §3, §4

[7] = system: UGT (glucuronidation); test: Liver microsomal glucuronidation assay (human); format: in vitro ADME; conditions: liver microsomes, pH 7.5, with 2% BSA, Clint divided by microsomal unbound fraction, read-out: Clint,u, Liver microsomes
Description: as §3, §4

[8] = system: UGT; test: Liver microsomal glucuronidation assay (human); format: in vitro ADME; conditions: human liver microsomes, pH 7.5, with 2% BSA
Description: as §3, §4

[9] = molecular target: T1, P-gp (Homo sapiens, UniProt P08183); test: Bi‐directional transport across MDCKII cells expressing human P‐gp; format: in vitro ADME; design: key to Pgp substrate: S, substrate; NS, non‐substrate; conditions: human, MDCK-MDR1, with 2.5 μmol/L LSN335984, uninhibited ratio divided by inhibited ratio; NER >3.0 = P‐gp substrate; read-out: Net efflux ratio
T1 construct: host or cells: MDCKII
Description: (§5) MDCKII cells stably expressing human wild‐type P‐gp were obtained from the Netherlands Cancer Institute Amsterdam, The Netherlands). MDCK cells were maintained and the assay was conducted essentially as described previously.12, 13 Transport was measured in both directions across uninhibited and inhibited cell monolayers using a substrate concentration of 5 μmol/L diluted from a 10 mmol/L DMSO stock solution final DMSO concentration of 0.05%) and a single 60‐min time interval.

[10] = molecular target: T2, human wild‐type P‐gp (Homo sapiens, UniProt P08183); test: as above; format: in vitro ADME; design: key to Pgp substrate: S, substrate; NS, non‐substrate; conditions: for PappA‐B / PappB‐A: 5 µmol/L compound; for P‐gp substrate: P‐gp‐transfected MDCKII cells; for P‐gp substrate / MDCK permeability (passive membrane permeability): in words; for Pgp substrate: classified from net efflux ratio (NER >3.0 = substrate); for Net efflux ratio: uninhibited ratio divided by inhibited ratio, NER >3.0 = P‐gp substrate
T2 construct: host or cells: MDCKII
Description: as §5

[11] = system: human intestinal microsomes; test: Intestinal glucuronidation in human intestinal microsomes; format: in vitro ADME; conditions: data not shown
[12] = system: UGT (glucuronidation); test: Kidney microsomal glucuronidation assay (human); format: in vitro ADME; conditions: kidney microsomes, pH 7.5, human, with 2% BSA
Description: as §3, §4

[13] = human, cited from earlier work; for EHC: enterohepatic circulation ref 11
[14] = system: human intestinal microsomes; design: method as in PMID 27862160; conditions: human intestinal microsomes ref 6; cited from earlier work
[15] = with 1 mmol/L ABT, 30 minutes pre-incubation, 1 mmol/L ABT pre‐incubation 30 minutes, read-out: Clint with ABT
[16] = 10^6 cells/mL, read-out: Clint without ABT
[17] = Clint divided by microsomal unbound fraction, read-out: Clint,u, Liver microsomes
[18] = MDR1‐MDCKII_inhibitor (2.5 µmol/L P‐gp inhibitor LSN335984)

T2 sequence (P08183 whole entry): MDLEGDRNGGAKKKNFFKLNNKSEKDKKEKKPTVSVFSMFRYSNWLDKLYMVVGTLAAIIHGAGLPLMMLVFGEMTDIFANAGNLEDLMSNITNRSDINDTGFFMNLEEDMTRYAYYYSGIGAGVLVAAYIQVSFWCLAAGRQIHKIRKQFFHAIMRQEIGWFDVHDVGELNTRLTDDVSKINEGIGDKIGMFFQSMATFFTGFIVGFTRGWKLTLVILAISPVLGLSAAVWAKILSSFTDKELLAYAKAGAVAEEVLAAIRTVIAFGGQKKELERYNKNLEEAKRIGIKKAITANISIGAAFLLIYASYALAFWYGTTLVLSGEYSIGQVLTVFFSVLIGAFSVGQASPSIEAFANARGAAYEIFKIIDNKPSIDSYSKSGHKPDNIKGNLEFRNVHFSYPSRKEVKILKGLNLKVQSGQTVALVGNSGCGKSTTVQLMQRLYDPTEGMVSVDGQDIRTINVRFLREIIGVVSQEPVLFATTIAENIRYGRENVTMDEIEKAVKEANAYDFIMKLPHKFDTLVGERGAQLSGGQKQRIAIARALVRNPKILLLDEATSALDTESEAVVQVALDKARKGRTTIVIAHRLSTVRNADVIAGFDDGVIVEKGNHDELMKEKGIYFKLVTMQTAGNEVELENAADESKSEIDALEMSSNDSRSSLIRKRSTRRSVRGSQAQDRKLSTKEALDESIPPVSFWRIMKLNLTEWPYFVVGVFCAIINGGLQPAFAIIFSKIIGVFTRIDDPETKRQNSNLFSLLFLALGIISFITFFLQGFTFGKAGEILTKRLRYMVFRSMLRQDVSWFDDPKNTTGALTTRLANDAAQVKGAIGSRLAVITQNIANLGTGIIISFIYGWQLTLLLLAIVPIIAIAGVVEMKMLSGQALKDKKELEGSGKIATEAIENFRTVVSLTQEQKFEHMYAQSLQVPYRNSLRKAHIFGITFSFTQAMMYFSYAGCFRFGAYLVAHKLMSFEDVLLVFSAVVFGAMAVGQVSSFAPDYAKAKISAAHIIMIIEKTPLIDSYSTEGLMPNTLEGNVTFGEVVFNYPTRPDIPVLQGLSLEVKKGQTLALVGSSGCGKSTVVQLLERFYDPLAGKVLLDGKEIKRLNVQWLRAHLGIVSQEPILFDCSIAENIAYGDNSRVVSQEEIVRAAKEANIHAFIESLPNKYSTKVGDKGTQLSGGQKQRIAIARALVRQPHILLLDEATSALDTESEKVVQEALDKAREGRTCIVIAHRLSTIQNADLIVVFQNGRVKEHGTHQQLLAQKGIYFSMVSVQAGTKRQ
T1 sequence (P08183 whole entry): as above

Row | Structure (SMILES) | hepatocyte CLint at 0.3 µmol/L [1, 15] [µL/min/1e6 cells] | hepatocyte CLint at 0.3 µmol/L [1, 16] [µL/min/1e6 cells] | percentage of the metabolism not inhibited by ABT [2] [%] | % of inhibition by ABT [2] | Hepatic fm by UGT [2] | hepatocyte CLint at 0.3 µmol/L [3, 15] [µL/min/1e6 cells] | hepatocyte CLint at 0.3 µmol/L [3, 16] [µL/min/1e6 cells] | % of inhibition by ABT [4] [%] | Hepatic fm by UGT [4] | microsomal CLint at 2 µmol/L [7] [µL/min/mg] | microsomal CLint at 2 µmol/L [8] [µL/min/mg] | PappB‐A/PappA‐B ([10]; MDR1‐MDCKII_control) | PappA‐B ([10]; MDR1‐MDCKII_control) | PappB‐A ([10]; MDR1‐MDCKII_control) | PappB‐A/PappA‐B ([10]; MDR1‐MDCKII_inhibitor) | PappA‐B [10, 18] | PappB‐A [10, 18] | P‐gp substrate [10] | Pgp substrate [10] | MDCK permeability (passive membrane permeability) [10] | also measured
1 | C[C@H]1c2cccc(CC(C)(C)O)c2C[C@H](CO)N1C(=O)Cc1c(Cl)cccc1Cl [DPTQ, 2‐(2,6‐dichlorophenyl)‐1‐((1S,3R)‐5‐(2‐hydroxy‐2‐methylpropyl)‐3‐(hydroxymethyl)‐1‐methyl‐3,4‐dihydroisoquinolin‐2(1H)‐yl)ethan‐1‐one] | 18.3 ± 5.9 | 38.6 ± 8.5 | 53.5 | 46.5% and 46.5 ± 6.6% | Moderate (moderate 30%‐70%) | 5.5 ± 2.2 | 5.8 ± 2 | 7.8 ± 9.6 | High (high 70%‐100% in hepatocytes) | 47.1 | 5.6 | 1.5 | 43.0 ± 4.5 10^–6cm/s | 62.6 ± 2.6 10^–6cm/s | 1.1 | 48.9 ± 5.9 10^–6cm/s | 53.5 ± 0.4 10^–6cm/s | not a P‐gp substrate and no | NS | high and High | microsomal CLint at 2 µmol/L ([5]; 2 µmol/L, 0.5 mg/mL, UDPGA, ND = Clint < 1.8, read-out: Clint, Liver microsomes): 99 µL/min/mg; microsomal CLint at 2 µmol/L [5, 17]: 123 µL/min/mg; microsomal CLint at 2 µmol/L [6, 17]: 667 µL/min/mg; microsomal CLint at 2 µmol/L ([6]; ND = Clint < 1.8, read-out: Clint, Liver microsomes): 79.4 µL/min/mg; efflux ratio at 60 min, 5 μmol/L [9]: 1.3; intestinal glucuronidation [11]: negligible
2 | Cc1ccc([C@@H]2O[C@H](CO)[C@@H](O)[C@H](O)[C@H]2O)cc1Cc1ccc(-c2ccc(F)cc2)s1 [Canagliflozin] | 6 ± 3.3 | 6.5 ± 3.6 | 87.3 | 12.7 ± 14.1% | Low (Low 0%‐30%) | 10.1 ± 1.4 | 12.7 ± 2 | 20.1 ± 5.1 | High (high 70%‐100% in hepatocytes) | 422 | 7.6 | 22 | 4.0 ± 1.8 10^–6cm/s | 89.2 ± 8.2 10^–6cm/s | 1.3 | 10.8 ± 1.4 10^–6cm/s | 14.1 ± 0.1 10^–6cm/s | yes | S | Moderate | % of inhibition by ABT ([2]; listed as canagliflozin): 12.7%; microsomal CLint at 2 µmol/L ([12]; Clint divided by microsomal unbound fraction, read-out: Clint,u, Kidney microsomes): 222 µL/min/mg; microsomal CLint at 2 µmol/L ([12]; ND = Clint < 1.8, read-out: Clint, Kidney microsomes): 4 µL/min/mg; P‐gp substrate ([10]; listed as canagliflozin): P‐gp substrate; MDCK permeability (passive membrane permeability) ([10]; listed as canagliflozin): moderate; Net efflux ratio [10]: 17.1; Net efflux ratio ([10]; listed as canagliflozin): > 3; EHC [13]: No; EHC ([13]; listed as canagliflozin): negligible; Urinary excretion % of glucuronide ([13]; From human 14C study ref 5): Moderate ^d (moderate 30%‐70%); intestinal glucuronidation [14]: negligible
